Assays:
ileal mucosae = assay: qRT-PCR of immune gene transcripts in ileal mucosae of avatar mice; type: in vivo; conditions: avatar responders compared to avatar non-responders
Method: Total RNA from gut biopsies was extracted with RNeasy Mini Kit (Qiagen) and then reverse transcribed into cDNA with the SuperScript III Reverse Transcriptase and the RNaseOUT™ Recombinant Ribonuclease Inhibitor (Life Technologies, Saint Aubin, France), in the presence of random primers (Promega, Charbonnieres, France) and the Deoxynucleoside Triphosphate Set, PCR grade (Roche Diagnostics, Meylan, France). cDNA was analyzed by real-time quantitative PCR (RT-qPCR) with the TaqMan method with TaqMan® Gene Expression Assays using the Universal Master Mix II (Invitrogen) according to the manufacturer's instructions using the 7500 Fast Real Time PCR system (Applied Biosystems). Expression was normalized to the expression of the housekeeping gene of Beta 2 Microglobulin by means of the 2^−ΔCt method.

ileal and colonic IEC = assay: Immunohistochemistry of cleaved caspase-3 in colon and ileal mucosae after OXA i.p.; type: in vivo, mice; conditions: 6 h after OXA i.p.; ileal versus colonic IEC
Method: Donor mice were treated with oxaliplatin (10 mg/kg) i.p. for 6 h to induce gut cell death. Control animals were treated with vehicle (PBS) alone. The composition of the commensal gut microbiota in the treated and non-treated groups was maintained synchronized by cohousing. At the end of the treatment, mice were euthanized and the ileum was collected to isolate IEC. One million IECs were then injected s.c. into the left flank of the recipient mice. The procedure was repeated once, 7 days later. Tumor challenge was performed on the right flank 7 days after the last immunization, with doses which obtain 100% of tumor incidence in naïve mice, MC38 (1×10^6 cells), MCA205 (0.8×10^6 cells), CT26 (1×10^6 cells) and 4T1 (0.3×10^6 cells).
FFPE gut sections were deparaffinised and rehydrated through a series of graded alcohols and distilled water. Antigen retrieval was performed by pre-treating sections with 0.01 M sodium citrate buffer (pH 6.0, Diapath) for 30 min in a 98° C. water bath. Endogenous peroxidase activity was inhibited by treating sections with 3% […] (#S202386, DAKO) for 10 min. Sections were blocked with IHC/ISH Super Blocking (#PV6122, LeicaBiosystem) for 10 min. […] Peroxidases were detected with Di Amino Benzidine-peroxidase substrate kit (DAKO), and counterstained with Mayer's haematoxylin. […]

[1] = tested on: small intestine enteroids; assay: OXA treatment of stem cell derived small intestine enteroids in vitro; type: cell-based, C57BL/6J mice; conditions: culminating in calreticulin cell surface exposure, data not shown
Method: Crypts were isolated and enriched from the ileum of 8-12 week old C57BL/6J mice as previously described (24) with the following modifications. Briefly, washed pieces of ileum were incubated in crypt chelating buffer (2 mM EDTA in PBS) for 30 minutes on ice. Following the removal of crypt chelating buffer, fragments were vigorously rinsed 3 times with PBS containing 10% FCS and filtered through a 70-μm cell strainer (BD Bioscience). Crypts were pelleted, washed with Advanced DMEM/F12 (ADF) (Invitrogen), resuspended in 1 mL of Matrigel growth factor reduced basement membrane matrix (Corning) and 50 uL drops were pipetted into a 24 well plate. Crypts were overlayed with ADF containing the following: 100 U/mL penicillin G sodium, 100 μg/mL streptomycin sulphate, 2 mM L-glutamine, 10 mM HEPES, 1× N2 supplement, 1× B27 supplement, 50 ng/mL mEGF, 100 ng/mL mNoggin (Peprotech, Hamburg, Germany), N-acetylcysteine (Sigma) (reagents from Invitrogen unless otherwise indicated) and 10% conditioned medium of R-Spondin-1 transfected HEK 293T cells.
IEC suspensions were obtained from enteroids by means of 3 wash dissociation method, as described above. […]

MC38 tumors = assay: FMT avatar mice (GF mice colonized with PCAC patient colonic content), MC38, OXA; type: in vivo, C57BL/6J mice; conditions: 12 PCAC patient feces tested
Method: (§1) Syngeneic C57BL/6J mice were implanted with 1×10^6 MC38 WT cells subcutaneously and treated intraperitoneally (i.p.) when tumors were 20 to 30 mm^2 in size with 10 mg/kg oxaliplatin or vehicule (PBS). The composition of the commensal gut microbiota in the treated and non-treated groups was maintained synchronized by cohousing. Tumor size was routinely monitored every 3 days by means of a caliper.
Frozen fecal samples were thawed and thoroughly vortexed. Large particulate material was allowed to settle by gravity. 200 μl of supernatant was administered in a single dose by oral gavage. Additionally, an extra 100 μl was topically applied onto the fur of each animal. The resulting gnotobiotic mice were maintained in positive pressurized isolators with irradiated food and autoclaved water. […]
Data analyses and representations were performed either with the statistical environment R, Microsoft Excel (Microsoft Co., Redmont, WA, USA) or Prism 5 (GraphPad, San Diego, CA, USA). Tumor growth was analysed with dedicated software (https://kroemerlab.shinyapps.io/TumGrowth). Briefly, data was subjected to a linear mixed effect modeling applied to log pre-processed tumor surfaces. p-values were calculated by testing jointly whether both tumor growth slopes and intercepts (on a log scale) were different between treatment groups of interests. […]

naïve CD4+ T cells = assay: Differentiation of naive CD4+ T cells into Th1 cells by DCs charged with HIEC-6 (IFNg ELISA); type: cell-based, human; conditions: DCs charged with allogeneic HIEC-6 pre-exposed to bacteria and/or OXA; 6 healthy volunteers
Method: CD14+ cells were isolated from PBMC obtained from healthy donors (Miltenyi Kit). Monocytes were differentiated into DCs by adding GM-CSF and IL-4 in the culture medium for 6 days. On day 6, immature DCs were harvested and charged with apoptotic intestinal epithelial cells.
For apoptotic IEC cells preparation, HIEC-6 cells (ATCC) were treated with bacteria 1 h, OXA 3 h, and ATB 1 h, and then left ON. The next morning, Apoptotic cells were harvested, washed 3× in PBS and added to the DC culture.
Naïve CD4 T cells were isolated from the matched donor for each experiment (Miltenyi kit) and added to the DC-IEC culture at a 10:1 ratio. The final co-culture was incubated for 6 days. On day 6, anti-CD3 and anti-CD28 mAb were added to the culture. After 24 h incubation supernatants were assayed for IFNg by ELISA (Biolegend).

MC38 cancers = assay: MC38 tumor model in SPF mice, OXA + anti-PD-1 Abs plus oral gavage of live bacteria; type: in vivo, C57BL/6J mice; conditions: SPF mice (eubiosis), oral gavage of 10^9 cfu live bacteria before and after OXA
Method: as §1
PD-1 blockade was performed by i.p. treatment with anti-PD-1 mAbs (RMP1-14; 200 μg/mouse) or respective isotype controls (2A3) (all antibodies from Bioxcell).
Erysipelothrix tonsillarum and Solobacterium moorei were provided by Prof. Ivo Gomperts Boneca, Institut Pasteur, France. Bacteroides fragilis, Alistipes onderdonkii, Erysipelatoclostridium ramosum, Dialister invisus, Paraprevotella clara isolates were isolated in our laboratory from ileal mucus from patients used in vaccination experiments. Species were grown on COS plates in aerobic or an anaerobic atmosphere created using anaerobic generators (Biomerieux) at 37° C. for 24-72 hrs. Colonization of ATB pre-treated or GF C57BL/6J mice was performed by oral gavage with 100 μl of suspension containing 1×10^9 bacteria in PBS. For bacterial gavage, suspensions of 10^9 CFU/ml were obtained using a fluorescence spectrophotometer (Eppendorf) at an optical density of 1 measured at a wavelength of 600 nm. […]

| Compound | ileal TH1/TFH immune tone (Tbx21, Bcl6, Il27, Gata3, Ahr expression) in response to OXA (ileal mucosae) | apoptosis-associated cleavage of caspase-3 in vivo (ileal and colonic IEC) | apoptosis of enteroids [1] | patient feces inducing complete resistance to OXA (avatar non-responders) (MC38 tumors) | patient feces resulting in antitumor efficacy of OXA comparable to SPF mice (avatar responders) (MC38 tumors) | HIEC-6 rendered immunogenic (differentiation of T cells into Th1 cells, IFN-gamma) (naïve CD4+ T cells) | OXA+anti-PD-1 Ab-mediated anticancer effects against established MC38 cancers (MC38 cancers) |
| --- | --- | --- | --- | --- | --- | --- | --- |
| O=C1[O][Pt]2([NH][C@@H]3CCCC[C@H]3[NH]2)[O]C1=O [OXA, Oxaliplatin] | decrease of the ileal TH1/TFH immune tone | far more prominent in ileal than colonic IEC | triggered a dose-dependent apoptosis | 4 | 8/12 |  |  |
| Bacteroides fragilis |  |  |  |  |  | rendered immunogenic | improved OXA+anti-PD-1 Ab-mediated anticancer effects |
